The values below come from ChEMBL document CHEMBL6115031, “Structure-Based Optimization of Moracin M as Potent and Selective PDE4 Inhibitors with Antipsoriasis Effects” (J Med Chem, 2025).

Molecules are shown by their SMILES. Activity calls are given as the source filed them. No cut-off for these calls is given here.

Data set [1] concerns the target T1, 3',5'-cyclic-AMP phosphodiesterase 4D (Homo sapiens, UniProt Q08499). The experiment in a line: Inhibition of human PDE4D2 (86 to 413 residues) extracted from Escherichia coli BL21 cells using 3H-cAMP/3H-cGMP as substrate preincubated with compound for 15 mins followed by substrate addition by liquid scintillation counter.
The nature of data set [2]: Metabolic stability in rat liver microsomes assessed as half life at 1 uM incubated upto 60 mins in presence of NADPH by LC-MS/MS analysis. The class given is ADME, Microsome.
Data set [3] concerns the target T1, 3',5'-cyclic-AMP phosphodiesterase 4D. Kind of data set: Inhibition of PDE4D (unknown origin).
Data set [4] deals with HaCaT. The experiment in a line: Anti-psoriasis activity in M5-stimulated human HaCaT cells assessed as restoration of cAMP level at 20 uM incubated for 2 hrs by competitive ELISA. The format is functional, cell-based.
Data set [5] deals with HaCaT. The experiment in a line: Inhibition of CREB phosphorylation in human HaCaT cells assessed as increase in pCREB/CREB ratio at 20 uM incubated for 2 hrs by Western blotting analysis. The class given is cell-based.
Data set [6] has as its system Mus musculus. The experiment in a line: Anti-inflammatory activity in IMQ-induced psoriasis in female BALB/c mouse assessed as reduction in TNF-alpha mRNA level at 20 mg/kg administered topically as 0.3 % ointment pretreated with IMQ for 6 hrs followed by compound addition once daily for 7 days by q-PCR analysis. Conditions: time 7.0 day. The class given is functional, organism-based.

Data set [7] concerns Mus musculus. The experiment in a line: Anti-inflammatory activity in IMQ-induced psoriasis in female BALB/c mouse assessed as reduction in IL-1beta mRNA level at 20 mg/kg administered topically as 0.3 % ointment pretreated with IMQ for 6 hrs followed by compound addition once daily for 7 days by q-PCR analysis. The format is functional, organism-based. The conditions noted are these: time 7.0 day.

Data set [8] concerns Mus musculus. Kind of data set: Anti-inflammatory activity in IMQ-induced psoriasis in female BALB/c mouse assessed as reduction in IL-6 mRNA level at 20 mg/kg administered topically as 0.3 % ointment pretreated with IMQ for 6 hrs followed by compound addition once daily for 7 days by q-PCR analysis. The format is functional, organism-based. The conditions noted are these: time 7.0 day.

The test system of data set [9] is Mus musculus. Kind of data set: Anti-inflammatory activity in IMQ-induced psoriasis in female BALB/c mouse assessed as reduction in IL-17 mRNA level at 20 mg/kg administered topically as 0.3 % ointment pretreated with IMQ for 6 hrs followed by compound addition once daily for 7 days by q-PCR analysis. The class given is functional, organism-based. The conditions noted are these: time 7.0 day.

Data set [10] relates to Mus musculus. The experiment in a line: Anti-inflammatory activity in IMQ-induced psoriasis in female BALB/c mouse assessed as reduction in CXCL-2 mRNA level at 20 mg/kg administered topically as 0.3 % ointment pretreated with IMQ for 6 hrs followed by compound addition once daily for 7 days by q-PCR analysis. The class given is functional, organism-based. Conditions: time 7.0 day.

Data set [11] deals with Mus musculus. Kind of data set: Anti-inflammatory activity in IMQ-induced psoriasis in female BALB/c mouse assessed as reduction in CCL-20 mRNA level at 20 mg/kg administered topically as 0.3 % ointment pretreated with IMQ for 6 hrs followed by compound addition once daily for 7 days by q-PCR analysis. The format is functional, organism-based. Conditions: time 7.0 day.
Data set [12] has as its system Mus musculus. Kind of data set: Anti-psoriasis effect in IMQ-induced female BALB/c mouse model assessed as reduction in spinous layer thickness at 20 mg/kg administered topically as 0.3 % ointment pretreated with IMQ for 6 hrs followed by compound addition once daily for 7 days by H and E staining based analysis. The conditions noted are these: time 7.0 day. The class given is functional, organism-based.

In data set [13] the test system is Mus musculus. Kind of data set: Anti-psoriasis effect in IMQ-induced female BALB/c mouse model assessed as reduction in abnormal rete ridges at 20 mg/kg administered topically as 0.3 % ointment pretreated with IMQ for 6 hrs followed by compound addition once daily for 7 days by H and E staining based analysis. The format is functional, organism-based. The conditions noted are these: time 7.0 day.

The subject of data set [14] is Mus musculus. The experiment in a line: Anti-psoriasis effect in IMQ-induced female BALB/c mouse model assessed as reduction in fibroblast proliferation at 20 mg/kg administered topically as 0.3 % ointment pretreated with IMQ for 6 hrs followed by compound addition once daily for 7 days by H and E staining based analysis. The class given is functional, organism-based. Conditions: time 7.0 day.

Data set [15] has as its system Mus musculus. The experiment in a line: Anti-psoriasis effect in IMQ-induced female BALB/c mouse model assessed as reduced bleeding in dermal papilla layers at 20 mg/kg administered topically as 0.3 % ointment pretreated with IMQ for 6 hrs followed by compound addition once daily for 7 days by H and E staining based analysis. The class given is functional, organism-based. The conditions noted are these: time 7.0 day.

T1 sequence (Q08499 whole entry, the tested form may be a part): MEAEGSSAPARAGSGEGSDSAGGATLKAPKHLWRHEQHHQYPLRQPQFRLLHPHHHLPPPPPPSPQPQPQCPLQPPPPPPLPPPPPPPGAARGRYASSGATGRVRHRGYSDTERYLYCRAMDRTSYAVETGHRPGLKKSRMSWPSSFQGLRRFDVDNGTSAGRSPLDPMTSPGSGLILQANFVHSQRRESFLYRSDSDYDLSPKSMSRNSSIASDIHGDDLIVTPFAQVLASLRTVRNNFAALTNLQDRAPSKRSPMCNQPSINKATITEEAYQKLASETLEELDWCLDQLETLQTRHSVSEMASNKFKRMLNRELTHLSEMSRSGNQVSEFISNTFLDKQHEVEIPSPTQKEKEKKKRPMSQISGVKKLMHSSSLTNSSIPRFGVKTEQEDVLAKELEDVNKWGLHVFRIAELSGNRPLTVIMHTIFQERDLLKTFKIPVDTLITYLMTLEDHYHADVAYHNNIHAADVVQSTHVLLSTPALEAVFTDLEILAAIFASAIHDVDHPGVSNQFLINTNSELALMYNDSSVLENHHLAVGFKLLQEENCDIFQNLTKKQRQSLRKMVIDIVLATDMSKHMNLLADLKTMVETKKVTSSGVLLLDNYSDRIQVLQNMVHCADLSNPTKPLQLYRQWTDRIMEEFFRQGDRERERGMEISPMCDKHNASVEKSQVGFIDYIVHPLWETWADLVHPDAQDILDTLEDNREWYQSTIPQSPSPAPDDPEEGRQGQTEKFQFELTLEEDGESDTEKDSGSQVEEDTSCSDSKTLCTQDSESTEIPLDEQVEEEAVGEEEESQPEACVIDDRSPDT

As for `O=C(O)[C@@H]1C[C@@H](Oc2c(O)ccc3cc(-c4ccc(OC(F)F)c(OCC5CC5)c4)oc23)CN1`, in data set [1], the 50% inhibitory concentration (IC50) is above 100 nM.
In the case of `COC(=O)[C@@H]1C[C@H](Oc2c(O)ccc3cc(-c4ccc(OC(F)F)c(OCC5CC5)c4)oc23)CN1`, the IC50 in data set [1] was determined as 10.9 nM. Besides, the half-life at 1 µM in data set [2] was 4 min.
For `COC(=O)COc1c(O)ccc2cc(-c3ccc(OC(F)F)c(OCC4CC4)c3)oc12`, the concentration for half-maximal inhibition (IC50) in [1] turned out to be 39.1 nM.
The same measure, in the same setting: for `O=C(O)[C@H]1C[C@@H](Oc2c(O)ccc3cc(-c4ccc(OC(F)F)c(OCC5CC5)c4)oc23)CN1` the value was above 100 nM.
Turning to `Oc1ccc2cc(-c3ccc(OC(F)F)c(OCC4CC4)c3)oc2c1O`, the IC50 in data set [1] and in [3] was 421 nM in each case. In data set [2], the half-life at 1 µM was determined as 21 min.
For `COC(=O)[C@@H]1C[C@@H](Oc2c(O)ccc3cc(-c4ccc(OC(F)F)c(OCC5CC5)c4)oc23)CN1`, in data set [1], the 50% inhibitory concentration (IC50) came out at 43.7 nM. Moreover, the half-life at 1 µM in [2] was determined as 3.4 min.
`O=C(O)[C@@H]1C[C@H](Oc2c(O)ccc3cc(-c4ccc(OC(F)F)c(OCC5CC5)c4)oc23)CN1`: the concentration for half-maximal inhibition (IC50) in [1] is above 100 nM.
`O=C(O)CCCOc1c(O)ccc2cc(-c3ccc(OC(F)F)c(OCC4CC4)c3)oc12`: the IC50 in data set [1] came to 22 nM. Further, in data set [2], the half-life at 1 µM was found to be 1.2 min.
On to `O=C(O)[C@H]1C[C@H](Oc2c(O)ccc3cc(-c4ccc(OC(F)F)c(OCC5CC5)c4)oc23)CN1`, for which the IC50 in [1] was above 100 nM.
Consider `COC(=O)[C@H]1C[C@H](Oc2c(O)ccc3cc(-c4ccc(OC(F)F)c(OCC5CC5)c4)oc23)CN1`, for which the IC50 in [1] came to 30 nM. The half-life at 1 µM in [2] came out at 3.7 min.
For `COC(=O)[C@@H](N)CCOc1c(O)ccc2cc(-c3ccc(OC(F)F)c(OCC4CC4)c3)oc12`, in data set [1], the IC50 is 29.5 nM. In addition, in data set [2], the half-life at 1 µM came to 4.8 min.
`O=C(O)COc1c(O)ccc2cc(-c3ccc(OC(F)F)c(OCC4CC4)c3)oc12`: the IC50 in data set [1] came to 23.7 nM.
Still for that read-out and setting: under `CCOC(=O)CCCOc1c(O)ccc2cc(-c3ccc(OC(F)F)c(OCC4CC4)c3)oc12` stands 22.7 nM; under `N[C@@H](CCOc1c(O)ccc2cc(-c3ccc(OC(F)F)c(OCC4CC4)c3)oc12)C(=O)O`, above 100 nM.
In the case of `COC(=O)CCCCOc1c(O)ccc2cc(-c3ccc(OC(F)F)c(OCC4CC4)c3)oc12`, in data set [1], the IC50 was 23.5 nM. For the same compound, the half-life at 1 µM in [2] was 3.6 min.
For `O=C(O)CCCCOc1c(O)ccc2cc(-c3ccc(OC(F)F)c(OCC4CC4)c3)oc12`, in that order: 20.6 nM and 92.4 min.
The like results for `COC(=O)CCCOc1c(O)ccc2cc(-c3ccc(OC(F)F)c(OCC4CC4)c3)oc12` were, in that order, 14.4 nM and 0.7 min.
As for `O=C(Nc1c(Cl)cncc1Cl)c1ccc(OC(F)F)c(OCC2CC2)c1`, the outcome in the data set on HaCaT [4], in the data set on Mus musculus [6], with Mus musculus [7], with Mus musculus [8], in the data set with Mus musculus [9] and with Mus musculus [10] was Active. Besides, the result in the data set with Mus musculus [11], in the data set with Mus musculus [12], with Mus musculus [13], in the data set with Mus musculus [14] and with Mus musculus [15] was Active. In addition, in the data set with HaCaT [5], the inhibition result was “Active”.
